Molecular target: H1047R PIK3CA enzyme (Homo sapiens, UniProt P42336, H1047R)
Experiment: ADP-Glo Biochemical PIK3CA Kinase Assay

H1047R PIK3CA enzyme, sequence (P42336 whole entry H1047R): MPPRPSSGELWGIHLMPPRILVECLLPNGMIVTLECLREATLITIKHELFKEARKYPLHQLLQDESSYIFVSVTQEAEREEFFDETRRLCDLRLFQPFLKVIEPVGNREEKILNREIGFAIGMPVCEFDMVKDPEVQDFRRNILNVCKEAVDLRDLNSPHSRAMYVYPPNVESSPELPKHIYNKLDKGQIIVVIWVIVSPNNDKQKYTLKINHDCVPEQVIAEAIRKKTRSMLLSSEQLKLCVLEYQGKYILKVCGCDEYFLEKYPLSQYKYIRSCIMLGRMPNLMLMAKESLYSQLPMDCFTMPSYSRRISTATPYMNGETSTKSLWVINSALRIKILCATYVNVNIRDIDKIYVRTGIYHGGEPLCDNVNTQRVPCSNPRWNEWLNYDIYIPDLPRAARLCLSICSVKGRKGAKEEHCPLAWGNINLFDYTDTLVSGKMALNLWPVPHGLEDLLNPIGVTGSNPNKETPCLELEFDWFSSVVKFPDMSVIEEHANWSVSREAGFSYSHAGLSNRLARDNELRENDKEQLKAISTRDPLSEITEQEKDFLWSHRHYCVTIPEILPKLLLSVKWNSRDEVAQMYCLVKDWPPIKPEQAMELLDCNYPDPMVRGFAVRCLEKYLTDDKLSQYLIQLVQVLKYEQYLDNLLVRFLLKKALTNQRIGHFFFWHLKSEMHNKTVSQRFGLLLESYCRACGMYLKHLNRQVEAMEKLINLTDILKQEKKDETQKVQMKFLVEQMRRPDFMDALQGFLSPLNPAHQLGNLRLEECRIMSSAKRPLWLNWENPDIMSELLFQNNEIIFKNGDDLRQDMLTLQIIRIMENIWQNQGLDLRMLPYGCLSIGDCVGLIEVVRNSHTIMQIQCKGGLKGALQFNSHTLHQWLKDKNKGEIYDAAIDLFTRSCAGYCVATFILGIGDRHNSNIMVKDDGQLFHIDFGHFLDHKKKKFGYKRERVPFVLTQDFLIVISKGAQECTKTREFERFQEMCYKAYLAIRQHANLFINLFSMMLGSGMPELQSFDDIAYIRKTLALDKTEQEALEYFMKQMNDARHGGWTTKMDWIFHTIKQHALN
H1047R PIK3CA enzyme, sequence (P27986 whole entry partner): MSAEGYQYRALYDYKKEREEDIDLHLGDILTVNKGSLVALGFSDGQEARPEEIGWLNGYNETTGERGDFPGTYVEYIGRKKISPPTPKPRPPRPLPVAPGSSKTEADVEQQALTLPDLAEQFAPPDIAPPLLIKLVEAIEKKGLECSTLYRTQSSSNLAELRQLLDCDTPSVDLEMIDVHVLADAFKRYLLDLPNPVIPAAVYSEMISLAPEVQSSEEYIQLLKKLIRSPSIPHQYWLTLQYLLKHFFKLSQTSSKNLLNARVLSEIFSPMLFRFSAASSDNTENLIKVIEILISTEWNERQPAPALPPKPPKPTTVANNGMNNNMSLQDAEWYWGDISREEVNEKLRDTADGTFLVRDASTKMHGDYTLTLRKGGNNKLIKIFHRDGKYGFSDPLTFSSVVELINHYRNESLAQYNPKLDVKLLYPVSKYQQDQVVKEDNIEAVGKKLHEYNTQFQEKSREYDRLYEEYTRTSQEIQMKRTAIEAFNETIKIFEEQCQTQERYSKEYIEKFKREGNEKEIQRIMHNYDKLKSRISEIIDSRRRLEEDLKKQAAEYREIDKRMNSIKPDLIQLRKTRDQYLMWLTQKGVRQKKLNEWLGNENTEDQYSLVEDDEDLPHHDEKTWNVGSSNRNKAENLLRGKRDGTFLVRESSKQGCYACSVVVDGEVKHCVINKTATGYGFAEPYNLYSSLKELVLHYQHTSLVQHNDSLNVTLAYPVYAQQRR

SMILES | IC50
O=C(Nc1cc(Br)cc2c1[C@H](c1ccccc1C(F)F)NC2=O)c1cc(F)cc(C(F)(F)F)c1 [Compound I-789] | ≤ 100 nM
O=C1N[C@H](c2cc(F)ccc2Cl)c2c(NC(=O)N3C[C@H](CO)[C@@H](C(F)(F)F)C3)cccc21 (single isomer, unassigned) [Compound I-2278] | 10000 to 100000 nM
Cc1cccnc1C1NC(=O)c2cccc(NC(=O)c3csc4ccccc34)c21 (stereo not shown) [Compound I-49] | 1000 to 10000 nM
CC(=O)N1CC(C2NC(=O)c3cccc(NC(=O)c4cc(F)cc(C(F)(F)F)c4)c32)C1 (stereo not shown) [Compound I-1909] | 10000 to 100000 nM
O=C1N[C@H](c2cc(F)ccc2Cl)c2c(NC(=O)[C@H]3CC[C@@H](O)C3)cc(Br)cc21 (single isomer, unassigned) [Compound I-2103] | 10000 to 100000 nM
Nc1cc(NC(=O)c2cc(F)cc(C(F)(F)F)c2)c2c(n1)C(=O)NC2c1cc(F)ccc1Cl (stereo not shown) [Compound I-273] | 100 to 500 nM
N#C[C@H]1C[C@@H](Oc2cc(NC(=O)c3cc(F)cc(C(F)(F)F)c3)c3c(c2)C(=O)N[C@@H]3c2cc(F)ccc2Cl)C1 [Compound I-1333] | 1000 to 10000 nM
Cn1c2c(c(NC(=O)c3cc(F)cc(C(F)(F)F)c3)cc1=O)C(c1cc(F)ccc1Cl)NC2=O (stereo not shown) [Compound I-727] | 10000 to 100000 nM
CN1CCC(C2NC(=O)c3cccc(NC(=O)c4cc(F)cc(C(F)(F)F)c4)c32)CC1 (stereo not shown) [Compound I-1815] | 10000 to 100000 nM
O=C(Nc1cc(Br)cc2c1C(c1cc(F)ccc1Cl)NC2=O)c1cc(F)cc(CC2CCC2)c1 (stereo not shown) [Compound I-1350] | 1000 to 10000 nM
O=C(Nc1cccc2c1C(=O)NS2(=O)=O)c1cc(F)cc(C(F)(F)F)c1 [Compound I-472] | 10000 to 100000 nM
Cc1ccccc1C1NC(=O)c2cccc(NC(=O)c3cc(=O)[nH]c4ccccc34)c21 (stereo not shown) [Compound I-30] | 10000 to 100000 nM
O=C(Nc1cc(NC(=O)C2CCOCC2)cc2c1C(c1cc(F)ccc1Cl)NC2=O)c1cc(F)cc(C(F)(F)F)c1 (stereo not shown) [Compound I-347] | ≤ 100 nM
O=C(Nc1cccc2c1[C@H]([C@@H]1CCCCC1=O)NC2=O)c1cc(F)cc(C(F)(F)F)c1 (racemic) [Compound I-2036] | 10000 to 100000 nM
CC1(F)CN(c2cc(NC(=O)c3cc(F)cc(C(F)(F)F)c3)c3c(n2)C(=O)NC3c2cc(F)ccc2Cl)C1 (stereo not shown) [Compound I-368] | 100 to 500 nM
Cc1ccccc1C1NC(=O)c2cc(CN)cc(NC(=O)c3csc4ccccc34)c21 (stereo not shown) [Compound I-88, N-(6-(Aminomethyl)-1-oxo-3-(o-tolyl)isoindolin-4-yl)benzo[b]thiophene-3-carboxamide] | ≤ 100 nM
O=C1N[C@@H](c2cc(F)ccc2Cl)c2c(NC(=O)N3C[C@](O)(C(F)(F)F)c4cc(F)ccc43)ccc(Cl)c21 (single isomer, unassigned) [Compound I-2619] | 1000 to 10000 nM
Cc1ccccc1C1NC(=O)c2cc(Br)cc(NC(=O)c3cncc(C(F)(F)F)c3)c21 (stereo not shown) [Compound I-528] | 1000 to 10000 nM
O=C(Nc1cc(C(O)C(F)(F)F)cc2c1C(c1cc(F)ccc1Cl)NC2=O)c1cc(F)cc(C(F)(F)F)c1 (stereo not shown) [Compound I-270, N-(3-(2-chloro-5-fluorophenyl)-1-oxo-6-(2,2,2-trifluoro-1-hydroxyethyl)isoindolin-4-yl)-3-fluoro-5-(trifluoromethyl)benzamide] | ≤ 100 nM
CC(=O)N1CC[C@H](Oc2cc(NC(=O)c3cc(F)cc(C(F)(F)F)c3)c3c(c2)C(=O)NC3c2cc(F)ccc2Cl)C1 (single isomer, unassigned) [Compound I-1541] | 100 to 500 nM
Cn1cc(-c2cc(NC(=O)c3cc(F)cc(C(F)(F)F)c3)c3c(n2)C(=O)NC3c2cc(F)ccc2Cl)cn1 (stereo not shown) [Compound I-162] | ≤ 100 nM
CC(C)(O)C12CC(C(=O)Nc3cccc4c3C(c3cc(F)ccc3Cl)NC4=O)(C1)C2 (stereo not shown) [Compound I-2117] | 10000 to 100000 nM
O=C(Nc1cc(-n2cncc2F)cc2c1C(c1cc(F)ccc1Cl)NC2=O)c1cc(F)cc(C(F)(F)F)c1 (stereo not shown) [Compound I-1128] | ≤ 100 nM
C=CC(=O)Nc1cc(NC(=O)c2cc(F)cc(C(F)(F)F)c2)c2c(c1)C(=O)NC2c1cc(F)ccc1Cl (stereo not shown) [Compound I-406] | ≤ 100 nM
O=C(Nc1cccc2c1C(C13CC4CC(CC(C4)C1)C3)NC2=O)c1cc(F)cc(C(F)(F)F)c1 (stereo not shown) [Compound I-1969] | 10000 to 100000 nM
O=C1C[C@H](c2cc(NC(=O)c3cc(F)cc(C(F)(F)F)c3)c3c(c2)C(=O)N[C@@H]3c2cc(F)ccc2Cl)CN1 (single isomer, unassigned) [Compound I-1711] | 1000 to 10000 nM
O=C1N[C@@H](c2cc(F)ccc2Cl)c2c(NC(=O)N3C[C@@](O)(C(F)(F)F)c4cc(F)ccc43)cc(C(F)F)cc21 (single isomer, unassigned) [Compound I-2578] | 1000 to 10000 nM
CS(=O)(=O)C1CN(c2cc(NC(=O)c3cc(F)cc(C(F)(F)F)c3)c3c(n2)C(=O)NC3c2cc(F)ccc2Cl)C1 (stereo not shown) [Compound I-418] | 100 to 500 nM

Continued, values first:

IC50 | SMILES
500 to 1000 nM | O=C1N[C@H](c2cc(F)ccc2Cl)c2c(NC(=O)N3C[C@@H](O)c4ccccc43)cc(-c3ccc4ncnn4c3)cc21 (single isomer, unassigned) [Compound I-1579]
≤ 100 nM | O=C(Nc1cc(-c2ccnn2C2COC2)cc2c1C(c1cc(F)ccc1Cl)NC2=O)c1cc(F)cc(C(F)(F)F)c1 (stereo not shown) [Compound I-1037]
500 to 1000 nM | O=C(Nc1cc(Br)cc2c1C(c1cc(F)ccc1Cl)NC2=O)c1cccc(Cl)c1 (stereo not shown) [Compound I-573]
1000 to 10000 nM | N#CCc1cc(NC(=O)N2C[C@H](O)c3cc(F)ccc32)c2c(c1)C(=O)N[C@H]2c1cc(F)ccc1Cl (single isomer, unassigned) [Compound I-2539]
10000 to 100000 nM | O=C1N[C@@H](c2cc(F)ccc2Cl)c2c(N[C@@H]3COCc4ccccc43)cc(Br)cc21 (racemic) [Compound I-1894]
100 to 500 nM | O=C1N[C@@H](c2cc(F)ccc2Cl)c2c(NC(=O)N3C[C@](O)(C(F)(F)F)c4cc(F)ccc43)cc(Cl)cc21 (single isomer, unassigned) [Compound I-2511]
1000 to 10000 nM | O=C1N[C@@H](c2cc(F)ccc2Cl)c2c(NC(=O)N3C[C@H](O)c4cc(F)c(F)cc43)cccc21 (single isomer, unassigned) [Compound I-2291]
10000 to 100000 nM | N#C[C@@H]1CCN(C(=O)Nc2cc(-c3ccc4ncnn4c3)cc3c2C(c2cc(F)ccc2Cl)NC3=O)C1 (mixture of isomers) [Compound I-2416]
≤ 100 nM | O=C(Nc1cc(-c2cnn(S(=O)(=O)C(F)F)c2)cc2c1C(c1cc(F)ccc1Cl)NC2=O)c1cc(F)cc(C(F)(F)F)c1 (stereo not shown) [Compound I-2055]
1000 to 10000 nM | CC(=O)Nc1cc(NC(=O)N2C[C@@](O)(C(F)(F)F)c3cc(F)ccc32)c2c(c1)C(=O)N[C@@H]2c1cc(F)ccc1Cl (single isomer, unassigned) [Compound I-2575]
≤ 100 nM | O=C1NC(c2cc(F)ccc2Cl)c2c(N/C(=N\O)c3cc(F)cc(C(F)(F)F)c3)cccc21 (stereo not shown) [Compound I-1100]
10000 to 100000 nM | O=C1NC(c2cc(F)ccc2Cl)c2c(CS(=O)(=O)c3ccccc3)cc(-c3ccc4ncnn4c3)cc21 (stereo not shown) [Compound I-1728]
≤ 100 nM | O=C1NC(c2cc(F)ccc2Cl)c2c(NC(=O)c3nsc4ccccc34)cc(CO)cc21 (stereo not shown) [Compound I-154]
1000 to 10000 nM | N#Cc1cc(-c2ccc3ncnn3c2)cc2c1C(c1cc(F)ccc1Cl)NC2=O (stereo not shown) [Compound I-1801]
≤ 100 nM | O=C1NC(c2cc(F)c(F)cc2Cl)c2c(NC(=O)c3nsc4ccccc34)cccc21 (stereo not shown) [Compound I-159]
≤ 100 nM | O=C(Nc1cc(-c2cnc(C(O)CO)nc2)cc2c1C(c1cc(F)ccc1Cl)NC2=O)c1cc(F)cc(C(F)(F)F)c1 (stereo not shown) [Compound I-1542]
≤ 100 nM | O=C(Nc1cc(Cn2cccn2)cc2c1[C@H](c1cc(F)ccc1Cl)NC2=O)c1cc(F)cc(C(F)(F)F)c1 (stereo in doubt) [Compound I-1615]

IC50 | SMILES
10000 to 100000 nM | O=C1NC(c2cc(F)ccc2Cl)c2c(NCC(=O)N3CCCCC3)cc(-c3ccc4ncnn4c3)cc21 (stereo not shown) [Compound I-2038]
1000 to 10000 nM | O=C(Nc1cc(F)cc(C(F)(F)F)c1)c1cccc2c1C(c1cc(F)ccc1Cl)NC2=O (stereo not shown) [Compound I-1353]
10000 to 100000 nM | O=C1NC(c2cc(F)ccc2Cl)c2c(NC(=O)[C@H]3C[C@H](O)c4ccccc43)cc(Br)cc21 (mixture of isomers) [Compound I-1943]
1000 to 10000 nM | O=C(Nc1cccc2c1C(c1cc(F)ccc1Cl)NC2=O)c1cc(F)ccc1NC1CCC1 (stereo not shown) [Compound I-872]
1000 to 10000 nM | [2H]C1([2H])N(C(=O)Nc2cccc3c2[C@H](c2cc(F)ccc2Cl)NC3=O)c2ccc(F)cc2[C@@]1(O)C(F)(F)F (single isomer, unassigned) [Compound I-2593]
1000 to 10000 nM | O=C(Nc1cc(-c2ccc3ncnn3c2)cc2c1C(c1cc(F)ccc1Cl)NC2=O)c1cc2ccccc2[nH]1 (stereo not shown) [Compound I-1609]
100 to 500 nM | O=C(Nc1cccc2c1C(c1cc(F)ccc1Cl)NC2=O)c1cc(Cl)cc(F)c1F (stereo not shown) [Compound I-767]
≤ 100 nM | CS(=O)(=O)n1cc(-c2cc(NC(=O)c3cc(F)cc(C(F)(F)F)c3)c3c(c2)C(=O)NC3c2cc(F)ccc2Cl)cn1 (stereo not shown) [Compound I-1498]
1000 to 10000 nM | O=C1NC(c2cc(F)ccc2Cl)c2c(NC(=O)N3CC(O)c4cc(Cl)ccc43)cccc21 (mixture of isomers) [Compound I-2376]
10000 to 100000 nM | N[C@@H]1CCC[C@H](C(=O)Nc2cc(-c3ccc4ncnn4c3)cc3c2C(c2cc(F)ccc2Cl)NC3=O)C1 (mixture of isomers) [Compound I-1844]
≤ 100 nM | CN(C)C(=O)Cc1cc(NC(=O)c2cc(F)cc(C(F)(F)F)c2)c2c(c1)C(=O)NC2c1cc(F)ccc1Cl (stereo not shown) [Compound I-476]
≤ 100 nM | O=C(Nc1cc(-c2cn(C(F)F)cn2)cc2c1C(c1cc(F)ccc1Cl)NC2=O)c1cc(F)cc(C(F)(F)F)c1 (stereo not shown) [Compound I-1823]
100 to 500 nM | O=C(Nc1cc(Cn2cccn2)cc2c1[C@@H](c1cc(F)ccc1Cl)NC2=O)c1cc(F)cc(C(F)(F)F)c1 (stereo in doubt) [Compound I-1614]
1000 to 10000 nM | O=C1NC(c2cc(F)ccc2Cl)c2c(NC(=O)C(Cl)c3ccccc3)cc(-c3ccc4ncnn4c3)cc21 (stereo not shown) [Compound I-1630]
10000 to 100000 nM | CS(=O)(=O)c1cc(F)cc(C(=O)Nc2cc(Br)cc3c2C(c2cc(F)ccc2Cl)NC3=O)c1 (stereo not shown) [Compound I-912]
≤ 100 nM | NS(=O)(=O)CCNC(=O)c1cc(NC(=O)c2cc(F)cc(C(F)(F)F)c2)c2c(c1)C(=O)NC2c1cc(F)ccc1Cl (stereo not shown) [Compound I-1469]

Source: patent US12581252B2, “Substituted pyrrolo[3,4-b]pyridines as PI3K-α inhibitors” (Relay Therapeutics, Inc., priority 2020, dated 2026)
